The results in this text go back to patent US6069254A, “Carboxamide derivatives of piperidine for the treatment of thrombosis disorders” (Ortho Pharmaceutical Corp., priority 1997, dated 2000).

The IC50 is the midpoint of a concentration-inhibition curve.

Where a name gives a salt, the structure may show the parent alone. Read-outs that look alike come from different tables or passages of the source.

The target of one assay is GPIIb/IIIa (Homo sapiens, UniProt P05106+P08514). The experiment in a line: In Vitro Solid Phase Purified Glycoprotein IIb/IIIa Binding Assay (fibrinogen binding). How it is done: In Vitro Solid Phase Purified Glycoprotein IIB/IIIA Binding Assay
Sequence of GPIIb/IIIa (P08514 32-887 limits assumed): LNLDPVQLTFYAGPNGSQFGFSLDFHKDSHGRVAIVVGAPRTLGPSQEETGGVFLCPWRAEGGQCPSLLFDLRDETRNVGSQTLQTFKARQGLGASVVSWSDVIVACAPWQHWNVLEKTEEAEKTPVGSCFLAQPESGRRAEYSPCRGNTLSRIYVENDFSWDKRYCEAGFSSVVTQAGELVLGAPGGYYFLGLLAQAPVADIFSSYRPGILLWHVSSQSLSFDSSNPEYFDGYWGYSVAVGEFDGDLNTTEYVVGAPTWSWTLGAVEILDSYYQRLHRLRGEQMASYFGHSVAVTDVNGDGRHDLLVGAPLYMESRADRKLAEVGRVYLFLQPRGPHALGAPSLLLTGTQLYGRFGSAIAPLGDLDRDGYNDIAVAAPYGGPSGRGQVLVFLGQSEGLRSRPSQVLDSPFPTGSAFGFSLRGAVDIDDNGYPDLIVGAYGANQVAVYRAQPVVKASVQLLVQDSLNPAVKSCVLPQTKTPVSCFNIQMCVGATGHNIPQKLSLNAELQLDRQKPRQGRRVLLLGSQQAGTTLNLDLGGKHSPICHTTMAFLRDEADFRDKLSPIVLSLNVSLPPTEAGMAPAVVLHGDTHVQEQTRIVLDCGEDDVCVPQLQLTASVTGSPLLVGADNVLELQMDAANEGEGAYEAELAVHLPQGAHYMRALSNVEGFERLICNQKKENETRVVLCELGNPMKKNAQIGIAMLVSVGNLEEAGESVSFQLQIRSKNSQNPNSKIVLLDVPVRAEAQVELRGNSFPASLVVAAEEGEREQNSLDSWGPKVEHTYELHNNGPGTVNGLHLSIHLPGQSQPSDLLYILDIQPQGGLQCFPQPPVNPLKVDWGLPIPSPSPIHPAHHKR
Sequence of GPIIb/IIIa (P08514 891-1039 limits assumed): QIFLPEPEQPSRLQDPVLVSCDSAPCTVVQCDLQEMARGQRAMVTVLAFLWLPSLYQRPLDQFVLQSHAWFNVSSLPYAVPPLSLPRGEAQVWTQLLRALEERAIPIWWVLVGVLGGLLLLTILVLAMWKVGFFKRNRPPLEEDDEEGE
Sequence of GPIIb/IIIa (P05106 27-788): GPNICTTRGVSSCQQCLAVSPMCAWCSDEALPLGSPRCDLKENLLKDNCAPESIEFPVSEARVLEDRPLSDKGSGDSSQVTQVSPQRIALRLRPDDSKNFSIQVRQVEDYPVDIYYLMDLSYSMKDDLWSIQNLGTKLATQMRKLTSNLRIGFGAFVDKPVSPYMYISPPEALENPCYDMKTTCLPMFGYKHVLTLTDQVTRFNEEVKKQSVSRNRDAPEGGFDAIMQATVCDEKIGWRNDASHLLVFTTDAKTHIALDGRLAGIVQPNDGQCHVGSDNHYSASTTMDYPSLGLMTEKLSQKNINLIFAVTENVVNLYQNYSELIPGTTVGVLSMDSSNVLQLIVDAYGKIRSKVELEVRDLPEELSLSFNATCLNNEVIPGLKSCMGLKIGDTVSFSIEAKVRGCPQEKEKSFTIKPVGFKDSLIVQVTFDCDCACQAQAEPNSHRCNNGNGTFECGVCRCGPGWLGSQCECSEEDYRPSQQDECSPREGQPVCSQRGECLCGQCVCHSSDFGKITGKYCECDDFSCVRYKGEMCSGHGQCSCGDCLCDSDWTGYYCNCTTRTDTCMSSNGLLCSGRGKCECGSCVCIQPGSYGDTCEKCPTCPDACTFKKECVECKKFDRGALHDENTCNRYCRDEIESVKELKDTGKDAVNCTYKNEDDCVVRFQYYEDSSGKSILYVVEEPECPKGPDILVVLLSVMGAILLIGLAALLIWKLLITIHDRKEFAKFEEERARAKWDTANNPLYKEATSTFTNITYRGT
The plate is covered and incubated overnight at 4° C. The GPIIb/IIIa solution is discarded and 150 μl of 5% BSA is added and incubated at RT for 1-3 h. The plate is washed extensively with modified Tyrodes buffer. Biotinylated fibrinogen (25 μl/well) at 2×final concentration is added to the wells that contain the test compounds (25 μl/well). The plate is covered and incubated at RT for 2-4 h. Twenty minutes prior to incubation completion, one drop of Reagent A (Vecta Stain ABC Horse Radish Peroxidase kit, Vector Laboratories, Inc.) and one drop Reagent B are added with mixing to 5 mL modified Tyrodes buffer mix and let stand. The ligand solution is discarded and the plate washed (5×200 μl/well) with modified Tyrodes buffer. Vecta Stain HRP-Biotin-Avidin reagent (50 μl/well, as prepared above) is added and incubated at RT for 15 min. The Vecta Stain solution is discarded and the wells washed ([…]) with modified Tyrodes buffer. Developing buffer (10 mL of 50 mM citrate/phosphate buffer @ pH 5.3, 6 mg Q-phenylenediamine, 6 μl 30% H2 O2; 50 μl/well) is added and incubated at RT for 3-5 min, and then 2N H2 SO4 (50 μl/well) is added. The absorbance is read at 490 nm.

In assay [1] the test system is gel-filtered platelets (thrombin-induced aggregation). The experiment in a line: In Vitro Inhibition of Thrombin-Induced Gel-Filtered Platelet Aggregation Assay. Type of assay: cell-based. The settings on record: Homo sapiens, thrombin-induced aggregation of gel-filtered platelets; for inhibition at 50 µM: read-out: Platelet Aggregation % Inh. (50 μM); for IC50: read-out: Platelet Aggregation IC50. How it is done: In Vitro Inhibition of Thrombin-Induced Gel-Filtered Platelet Aggregation Assay
The percentage of platelet aggregation is calculated as an increase in light transmission of compound-treated platelet concentrate vs. control-treated platelet concentrate. Human blood is obtained from drug free, normal donors into tubes containing 0.13M sodium citrate. Platelet rich plasma (PRP) is collected by centrifugation of whole blood at 200×g for 10 min at 25° C. The PRP (5 mL) is gel filtered through Sepharose 2B (bed volume 50 mL), and the platelet count is adjusted to 2×10^7 platelets per sample. The following constituents are added to a siliconized cuvette: concentrated platelet filtrate and Tyrode's buffer (0.14M NaCl, 0.0027M KCl, 0.012M NaHCO3,0.76 mM Na2 HPO4, 0.0055M glucose, 2 mg/mL BSA and 5.0 mM HEPES @ pH 7.4) in an amount equal to 350 μl, 50 μl of 20 mM calcium and 50 μl of the test compound. Aggregation is monitored in a BIODATA aggregometer for the 3 min following the addition of agonist (thrombin 50 μl of 1 unit/mL).

A further assay relates to thrombus formation. Put plainly: canine arteriovenous shunt model of thrombosis. Type of assay: in vivo. The settings on record: iv infusion.
Setting [2] is: isolated GPIIb/IIIa, biotinylated fibrinogen, read-out: Fibrinogen Binding IC50.

With `O=C(O)C(O)CNC(=O)[C@@H]1CCCN(C(=O)CCC2CCNCC2)C1` (single isomer, unassigned) [Compound 11, N-3-(4-Piperidinepropionyl)-R-(-)-nipecotyl-(3-amino-2-hydroxy) propionic acid.TFA], the IC50 on GPIIb/IIIa (setting [2]) is 4 nM.
As to `NCCCCCC(=O)N1CCCC(C(=O)NC(CC(=O)O)c2cccnc2)C1` (stereo not shown) [Compound 10, N-(6-Aminocaproyl)-nipecotyl-3-amino-3-(3-pyridyl)propionic acid.3TFA], in assay [1], the inhibition at 50 µM was 85% and the IC50 is 1600 nM. For the same compound, at GPIIb/IIIa, the IC50 was 19 nM.
Regarding `O=C(O)C[C@H](NC(=O)[C@@H]1CCCN(C(=O)CCC2CCNCC2)C1)c1cnc2ccccc2c1` [Compound 18, N-3-(4-Piperidinepropionyl)-R-(-)-nipecotyl-[(S)-3-amino-3-(3-quinolinyl)]propionic acid.2HCl], in the assay with thrombus formation, the “efficacy in canine arteriovenous shunt model of thrombosis” value is on record as “have shown efficacy in a canine arteriovenous shunt model of thrombosis in a dose-dependent fashion”. The inhibition at 50 µM in assay [1] was 100%. The IC50 at GPIIb/IIIa (setting [2]) was 0.2 nM.
As to `O=C(O)C[C@H](NC(=O)C1CCCN(CCCC2CCNCC2)C1)c1ccc2c(c1)OCO2` (stereo partly drawn) [Compound 20, N-3-(4-Piperidinepropyl)-nipecotyl-[(S)-3-amino-3-(3,4-methylenedioxyphenyl)]propionic acid.2TFA], on GPIIb/IIIa (setting [2]), the IC50 came to 0.7 nM.
As for `O=C(O)C[C@H](NC(=O)[C@@H]1CCCN(C(=O)CCC2CCNCC2)C1)c1cccnc1` [Compound 21, N-3-(4-Piperidinepropionyl)-R-(-)-nipecotyl-[(S)-3-amino-3-(3-pyridyl)]propionic acid.2TFA], in assay [1], the inhibition at 50 µM was determined as 100% and the IC50 turned out to be 60 nM. Also, the IC50 at GPIIb/IIIa (setting [2]) is 0.5 nM.
For the compound `COc1cccc(NC(=O)N[C@@H](CNC(=O)[C@@H]2CCCN(C(=O)CCC3CCNCC3)C2)C(=O)O)c1` [Compound 22, N-3-(4-Piperidinepropionyl)-R-(-)nipecotyl-[(S)-2-(3-methoxyanilino)carbonylamino-3-amino]propionic acid], the half-maximal inhibitory concentration (IC50) on GPIIb/IIIa (setting [2]) worked out at 0.7 nM.
For `O=C(N[C@@H](CNC(=O)[C@@H]1CCCN(C(=O)CCC2CCNCC2)C1)C(=O)O)OCc1ccccc1` [Compound 23, N-3-(4-Piperidinepropionyl)-R-(-)nipecotyl-[(S)-2-benzyloxycarbonylamino-3-amino]propionic acid.HCl], at GPIIb/IIIa (setting [2]), the IC50 was 0.3 nM.
With `O=C(N[C@@H](CNC(=O)[C@@H]1CCCN(C(=O)CCC2CCNCC2)C1)C(=O)O)OCc1cccc(Cl)c1` [Compound 24, N-3-(4-Piperidinepropionyl)-R-(-)nipecotyl-[(S)-2-(3-chlorobenzyloxy)carbonylamino-3-amino]propionic acid.HCl], in assay [1], the inhibition at 50 µM was 100%.
In the case of `O=C(NC[C@H](NS(=O)(=O)Cc1ccccc1)C(=O)O)[C@@H]1CCCN(C(=O)CCC2CCNCC2)C1` [Compound 25, N-3-(4-Piperidinepropionyl)-R-(-)nipecotyl-[(S)-2-benzylsulfonylamino-3-amino]propionic acid.HCl], the IC50 stood at 7 nM in assay [1] and 0.3 nM at GPIIb/IIIa (setting [2]).
In the case of `COc1cc(NC(=O)N[C@@H](CNC(=O)[C@@H]2CCCN(C(=O)CCC3CCNCC3)C2)C(=O)O)cc(OC)c1` [Compound 26, N-3-(4-Piperidinepropionyl)-R-(-)nipecotyl-[(S)-2-(3,5-dimethoxyanilino)carbonylamino-3-amino]propionic acid.HCl], the IC50 at GPIIb/IIIa (setting [2]) was 0.3 nM.
Consider `O=C(O)C[C@H](NC(=O)[C@@H]1CCCN(C(=O)N2CCC(C3CCNCC3)CC2)C1)c1cccnc1` [Compound 27, N-[(4,4'-Bipiperidin-1-yl-)carbonyl]-R-(-)-nipecotyl-[(S)-3-amino-3-(3-pyridyl)]propionic acid.3HCl], for which the inhibition at 50 µM in assay [1] turned out to be 100%. Also, at GPIIb/IIIa (setting [2]), the IC50 is 0.6 nM.
Regarding `O=C(Nc1ccc2ccccc2c1)N[C@@H](CNC(=O)[C@@H]1CCCN(C(=O)CCC2CCNCC2)C1)C(=O)O` [Compound 28, N-3-(4-Piperidinepropionyl)-R-(-)nipecotyl-[(S)-2-(2-naphthylamino)carbonylamino-3-amino]propionic acid.HCl], in assay [1], the inhibition at 50 µM is 100%. The IC50 on GPIIb/IIIa (setting [2]) stood at 0.2 nM.
The matching figures for `O=C(NC[C@@H]1NC(=O)N(Cc2ccccc2)C1=O)[C@@H]1CCCN(C(=O)CCC2CCNCC2)C1` [Compound 29, N-3-(4-Piperidinepropionyl)-R-(-)nipecotyl-aminomethyl-5-(S)-(3-N-benzyl)imidazoline-2,4-dione.HCl]: 100% and 68 nM.
On to `O=C(NCCc1ccccc1)N[C@@H](CNC(=O)[C@@H]1CCCN(C(=O)CCC2CCNCC2)C1)C(=O)O` [Compound 30, N-3-(4-Piperidinepropionyl)-R-(-)nipecotyl-[(S)-2-(2-phenethylamino)carbonylamino-3-amino]propionic acid.HCO2 H], for which the inhibition at 50 µM in assay [1] turned out to be 100%. For the same compound, on GPIIb/IIIa (setting [2]), the IC50 worked out at 0.8 nM.
Regarding `Cc1ccc([C@H](CC(=O)O)NC(=O)[C@@H]2CCCN(C(=O)CCC3CCNCC3)C2)cn1` [Compound 31, N-3-(4-Piperidinepropionyl)-R-(-)nipecotyl-[(S)-3-amino-3-(6-methyl-3-pyridyl)]propionic acid.2HCl], in assay [1], the inhibition at 50 µM turned out to be 100%. Further, at GPIIb/IIIa (setting [2]), the IC50 is 0.3 nM.
For the compound `O=C(O)C[C@H](NC(=O)[C@@H]1CCCN(C(=O)CCC2CCNCC2)C1)c1cncc(Br)c1` [Compound 32, N-3-(4-Piperidinepropionyl)-R-(-)nipecotyl-[(S)-3-amino-3-(5-bromo-3-pyridyl)]propionic acid.2HCl], the IC50 at GPIIb/IIIa (setting [2]) was determined as 0.4 nM.
As to `N=CN1CCC(CCC(=O)N2CCC[C@@H](C(=O)N[C@@H](CC(=O)O)c3cccnc3)C2)CC1` [Compound 33, N-3-(4-Formamidinopiperidinepropionyl)-R-(-)nipecotyl-[(S)-3-amino-3-(3-pyridyl)]propionic acid.2HCl], the inhibition at 50 µM in assay [1] was 100%. For the same compound, the IC50 in assay [1] amounted to 300 nM; at GPIIb/IIIa (setting [2]) it was 0.7 nM.
